The subject of test [1] is CAL-85-1. Description: normalised viability (% of control), CellTiter-Blue; higher = more viable cells (about 100 = DMSO control). The note with it: incubation time: 72 h. In a few lines:
(§1)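 Breast cancer cell lines in 20 µl suspension were seeded onto 384-well plates pre-loaded with compound dissolved in 5 µl medium, then incubated 72 h. CellTiter-Blue reagent (2.5 µl) was added for 2 h at 37 °C and fluorescence read at 560/590 nm. Each plate was normalised to vehicle (100) and a positive kill control (0), with Z'-factor quality control. The value is normalised viability at one listed concentration of the series.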

Test [2] relates to DU-4475. Described as above. The conditions noted are these: incubation time: 72 h. In outline: as §1
Test [3] deals with HDQ-P1. The test is described as above. The conditions noted are these: incubation time: 72 h. In outline:
as §1

Test [4] relates to MDA-MB-453. The description is as above. The conditions noted are these: incubation time: 72 h. In outline: as §1
The test system of test [5] is BT-474. The conditions noted are these: 72 h. How it is done: (§2)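 Drug sensitivity and resistance testing (DSRT) of breast cancer cell lines in 384-well plates, 5 concentrations in 10-fold dilutions over a compound-specific 10,000-fold range. After 72 h, cytotoxicity was read by CellTox Green fluorescence and viability by CellTiter-Glo luminescence (multiplexed), normalised to DMSO and benzethonium chloride controls. EC50 is the inflection point of the fitted dose-response curve (bottom asymptote free, so it can be relative for partial curves) and is censored at the highest tested concentration. Rows with DSS 0 (no meaningful response) were excluded.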

Test [6] has as its system BT-549. The conditions noted are these: 72 h. How it is done: as §2
For test [7], the system named is CAL-85-1. The note with it: 72 h. How it is done:
as §2

Test [8] deals with HDQ-P1. The note with it: 72 h. How it is done:
as §2

In test [9] the test system is MDA-MB-231. The note with it: 72 h. How it is done: as §2
Test [10] has as its system CAL-148. The conditions noted are these: 72 h. In outline:
(§3)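 Each 384-well plate was pre-loaded with compound dissolved in 5 µl medium, received breast cancer cells in 20 µl suspension, and was incubated 72 h. A 2.5 µl addition of CellTiter-Blue for 2 h at 37 °C was followed by a fluorescence read at 560/590 nm. Data were normalised per plate to vehicle and a positive kill control and checked by Z'-factor. EC50 was fitted from the percent-inhibition dose-response curve, censored at the highest concentration, excluding rows with a drug sensitivity score of zero.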

The test system of test [11] is CAL-51. The conditions noted are these: 72 h. In a few lines:
as §3

Test [12] concerns CAL-85-1. The conditions noted are these: 72 h. In outline: as §3
This is another data set of the same source.

The subject of test [13] is DU-4475. The conditions noted are these: 72 h. In a few lines: as §3
For test [14], the system named is HDQ-P1. The note with it: 72 h. In a few lines: as §3
The source holds these as a separate data set.

For test [15], the system named is MDA-MB-453. The note with it: 72 h. In a few lines: as §3
For test [16], the system named is BT-549. The note with it: 72 h. In outline:
as §3
This is another data set of the same source.

In test [17] the test system is HCC1143. The conditions noted are these: 72 h. In outline:
as §3

For test [18], the system named is HCC1937. The conditions noted are these: 72 h. In outline: as §3
The subject of test [19] is MDA-MB-231. The note with it: 72 h. In outline:
as §3
This is another data set of the same source.

In test [20] the test system is MDA-MB-436. The conditions noted are these: 72 h. In a few lines:
as §3

Test [21] deals with MDA-MB-468. The note with it: 72 h. In outline: as §3
Test [22] has as its system MFM-223. The conditions noted are these: 72 h. In a few lines: as §3
The test system of test [23] is CAL-51. The note with it: 72 h. How it is done: as §2
The source holds these as a separate data set.

Test [24] concerns BT-474. The conditions noted are these: 72 h. In outline: as §3
This is another data set of the same source.

The test system of test [25] is Hs578T. The conditions noted are these: 72 h. In outline: as §3
For test [26], the system named is SK-BR-3. The conditions noted are these: 72 h. In outline: as §3
Test [27] relates to CAL-148. The note with it: 72 h. In a few lines: (§4)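 In this assay, breast cancer cell lines spent 72 h with compound at 5 concentrations in 10-fold steps over a compound-specific 10,000-fold range. The first readout was cell death by CellTox Green fluorescence, and the second was viability by CellTiter-Glo luminescence, each normalised per plate to 0.1 % DMSO and a positive kill control. EC50 came from the dose-response curves, censored at the top concentration.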
The source holds these as a separate data set.

Test [28] has as its system HCC1143. The conditions noted are these: 72 h. In a few lines: as §4
The source holds these as a separate data set.

In test [29] the test system is MCF-10A. The note with it: 72 h. In a few lines: as §4
Test [30] has as its system CAL-120. The note with it: 72 h. In a few lines:
as §3

For test [31], the system named is HCC1599. The conditions noted are these: 72 h. In outline:
as §3

The test system of test [32] is CAL-148. The note with it: 72 h. How it is done: as §2
This is another data set of the same source.

The test system of test [33] is MDA-MB-468. The conditions noted are these: 72 h. How it is done: as §2
The source holds these as a separate data set.

Structures are written as SMILES.

Consider `COc1ccc(S(=O)(=O)Nc2cccnc2Nc2ccc(O)cc2)cc1` [ABT-751] (10000 nM), for which the normalised viability turned out to be 23.6% in test [1], 6.9% in test [2], 32.6% in test [3] and 20.6% in [4].
For `CN[C@@H](C)C(=O)N[C@H]1CN(C(=O)CC(C)C)CC[C@H]2CC[C@@H](C(=O)NC(c3ccccc3)c3ccccc3)N2C1=O` [AT-406], the “EC50, CellTox Green” value was above 10000 nM in test [5]; 18.9 nM in [6]; 75.9 nM in test [7]; 5140 nM in [8]; 81.2 nM in [9].
As to `Cc1cc(Nc2nc(N[C@@H](C)c3ncc(F)cn3)ncc2Cl)[nH]n1` [AZD1480] (1000 nM), the normalised viability turned out to be 88.4% in test [1], 74.7% in [2], 137% in test [3] and 56.6% in test [4].
Consider `CNC(=O)c1ccccc1Sc1ccc2c(/C=C/c3ccccn3)n[nH]c2c1` [Axitinib], for which the “EC50, CellTiter-Blue viability” value stood at 1880 nM in [10]; 1620 nM in [11]; 1250 nM in [12]; 2250 nM in [13]; 474 nM in [14]; 657 nM in [15]. In addition, the “EC50, CellTiter-Blue viability” value in test [16] is 2180 nM; in [17], 2570 nM; in test [18], 1370 nM; in test [19], 1170 nM; in [20], 91.7 nM; in [21], 6660 nM. Besides, the “EC50, CellTiter-Blue viability” value in test [22] turned out to be 163 nM. In addition, the “EC50, CellTox Green” value in test [23] was found to be 1180 nM.
Consider `CNC(=O)c1ccccc1Sc1ccc2c(/C=C/c3ccccn3)n[nH]c2c1` [Axitinib] (10000 nM), for which the normalised viability in [1] stood at 67.2%; in test [2], 21.1%; in test [3], 67.3%; in test [4], 46.2%.
Consider `CC(O)(CS(=O)(=O)c1ccc(F)cc1)C(=O)Nc1ccc(C#N)c(C(F)(F)F)c1` (stereo unspecified) [Bicalutamide], for which the “EC50, CellTiter-Blue viability” value in test [21] was above 10000 nM.
For `CC(O)(CS(=O)(=O)c1ccc(F)cc1)C(=O)Nc1ccc(C#N)c(C(F)(F)F)c1` (stereo unspecified) [Bicalutamide] (10000 nM), the normalised viability in test [1] turned out to be 102%; in test [2], 121%; in test [3], 128%; in test [4], 100%.
For `CCNC(=O)CCC/C=C\C[C@@H]1[C@@H](/C=C/[C@@H](O)CCc2ccccc2)[C@H](O)C[C@@H]1O` [Bimatoprost] (5500 nM), in that order: 92.2%, 107%, 115% and 106%.
Taken in the same sequence, the figures for `COc1cc(Nc2c(C#N)cnc3cc(OCCCN4CCN(C)CC4)c(OC)cc23)c(Cl)cc1Cl` [Bosutinib] (10000 nM) were 12.4%, 4.38%, 4.45% and 4.44%.
As to `Cn1cc(C2=C(c3cn(C4CCN(Cc5ccccn5)CC4)c4ccccc34)C(=O)NC2=O)c2ccccc21` [Enzastaurin], the “EC50, CellTiter-Blue viability” value in test [10] turned out to be 24 nM; in test [14], 1000 nM; in test [15], 408 nM; in test [24], 1670 nM; in [16] it was 857 nM; in [17], 418 nM. Further, the “EC50, CellTiter-Blue viability” value turned out to be 5370 nM in test [18]; 873 nM in test [25]; 129 nM in test [20]; 642 nM in [22]; 667 nM in test [26].
In the case of `Cn1cc(C2=C(c3cn(C4CCN(Cc5ccccn5)CC4)c4ccccc34)C(=O)NC2=O)c2ccccc21` [Enzastaurin] (10000 nM), the normalised viability in test [1] amounted to 88.4%; in test [2], 86%; in [3], 78.1%; in [4], 51.9%.
As for `CC(C)(C)NC(=O)[C@H]1CC[C@H]2[C@@H]3CC[C@H]4NC(=O)C=C[C@]4(C)[C@H]3CC[C@]12C` [Finasteride], the “EC50, CellTiter-Blue viability” value is 8190 nM in test [10]; 8160 nM in test [11]; 5420 nM in test [13]; 7430 nM in test [15]; 8260 nM in test [22].
As to `CC(C)(C)NC(=O)[C@H]1CC[C@H]2[C@@H]3CC[C@H]4NC(=O)C=C[C@]4(C)[C@H]3CC[C@]12C` [Finasteride] (10000 nM), the normalised viability in test [1] came to 51.9%; in test [2] it was 0.15%; in [3] it was 135%; in [4], 23%.
Consider `Nc1ccn([C@@H]2O[C@H](CO)[C@@H](O)C2(F)F)c(=O)n1` [Gemcitabine], for which the “EC50, CellTiter-Glo” value in test [27] came out at 12.8 nM; in test [28], 9.33 nM; in [29] it was 39.9 nM. Besides, the “EC50, CellTiter-Blue viability” value in test [10] is 18.8 nM; in test [11] it was 22 nM; in test [12], 87.4 nM; in test [13], 91.6 nM; in test [15], 103 nM; in test [16], 19.1 nM. In addition, the “EC50, CellTiter-Blue viability” value was 9.03 nM in test [30]; 9.03 nM in test [17]; 233 nM in test [31]; 20.5 nM in test [18]; 9.36 nM in [25]; 4.41 nM in test [19]. Further, the “EC50, CellTiter-Blue viability” value in test [20] was 22.2 nM; in [21] it was 13.5 nM; in test [22], 673 nM; in test [26], 11.8 nM. Further, the “EC50, CellTox Green” value stood at 9.69 nM in test [32], 7.56 nM in test [23], 99.7 nM in [7] and 5.64 nM in [33].

Values taken from the supplement of paper PMC4862054.
